# Test results as given in patent publication US20230322722A1, “MODULATORS OF MYC FAMILY PROTO-ONCOGENE PROTEIN” (Nalo Therapeutics, priority 2020, published 2023).
# Legend:
# [1] = biological target: T1, MycN protein (Homo sapiens, UniProt P04198); assay: Degradation of MycN protein, Western blot, SKNBE2 cells (Example 160); type: cell-based
# T1 construct: either 2×10^6 of L-363 (human leukemia cell line) or SKNBE2 (neuroblastoma cell line) cells; endogenous in cells; host or cells: SKNBE2 / SK-N-BE(2) neuroblastoma cells
# T1 sequence (P04198 1-464): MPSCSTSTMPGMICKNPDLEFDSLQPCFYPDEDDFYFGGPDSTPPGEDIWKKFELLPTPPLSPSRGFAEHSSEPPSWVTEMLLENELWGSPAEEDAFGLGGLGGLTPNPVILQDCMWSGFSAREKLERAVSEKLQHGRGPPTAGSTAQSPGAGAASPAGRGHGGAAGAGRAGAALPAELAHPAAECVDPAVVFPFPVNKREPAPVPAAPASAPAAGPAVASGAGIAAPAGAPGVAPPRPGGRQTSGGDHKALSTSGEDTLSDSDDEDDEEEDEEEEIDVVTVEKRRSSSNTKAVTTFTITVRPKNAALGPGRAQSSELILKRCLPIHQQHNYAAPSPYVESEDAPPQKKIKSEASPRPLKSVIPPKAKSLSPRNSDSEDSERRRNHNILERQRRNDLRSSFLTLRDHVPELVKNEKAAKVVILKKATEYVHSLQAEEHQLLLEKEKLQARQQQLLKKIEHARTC
# How it was run: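 L-363 or SKNBE2 cells (passage <40, mostly <30) at 1×10^6 cells/mL in RPMI 1640/10% FBS were exposed 6 h to compound added from a 1 mM stock. RIPA lysates (25–30 ug protein) were analysed by SDS-PAGE and immunoblot with 1:500 primary antibody, with protein level quantified by band densitometry.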
# [2] = biological target: T2, MycC protein (Homo sapiens, UniProt P01106); assay: Degradation of MycC protein, Western blot, L-363 cells (Example 160); type: cell-based; details: 6 h
# T2 construct: either 2×10^6 of L-363 (human leukemia cell line) or SKNBE2 (neuroblastoma cell line) cells; endogenous in cells; host or cells: L-363 / L363 human leukemia cells
# T2 sequence (P01106 whole entry): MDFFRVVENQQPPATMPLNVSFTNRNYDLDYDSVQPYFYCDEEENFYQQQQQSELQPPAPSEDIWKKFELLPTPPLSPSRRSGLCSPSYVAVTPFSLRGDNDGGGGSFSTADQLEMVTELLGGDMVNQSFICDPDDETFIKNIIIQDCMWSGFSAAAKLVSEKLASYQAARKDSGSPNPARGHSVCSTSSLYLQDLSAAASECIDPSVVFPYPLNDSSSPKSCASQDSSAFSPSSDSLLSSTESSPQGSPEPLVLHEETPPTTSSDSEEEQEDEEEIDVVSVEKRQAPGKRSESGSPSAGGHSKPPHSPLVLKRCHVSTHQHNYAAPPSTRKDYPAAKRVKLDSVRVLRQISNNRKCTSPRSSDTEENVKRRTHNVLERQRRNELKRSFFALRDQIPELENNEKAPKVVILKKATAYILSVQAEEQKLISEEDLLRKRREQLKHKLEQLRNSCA
# Protocol: In a T150 flask was plated either 2×10^6 of L-363 (human leukemia cell line) or SKNBE2 (neuroblastoma cell line) cells in a total of 30 mL containing Roswell Park Memorial Institute (RPMI) 1640 Medium (Thermo Fisher, Cat. #11875-085), 10% Fetal Bovine Serum (FBS, Thermo Fisher: Cat. #10437-028), 1% Penicillin/streptomycin (Thermo Fisher: Cat. #10378016), and 1% Amophotericin B (Thermo Fisher, Cat. #15290026). The cells were split every 72 hours by reseeding the L-363 or SKNBE2 cells, and the passage number was noted. It is noteworthy that cell cultures that were above 40 passages were not used, and most experiments were done with cells of less than 30 passages.
# In a 6-well cell culture plate, a total of 3 mL of either 1×10^6 cells/mL of L-363 or SKNBE2 cells were seeded, resulting in a total of 3×10^6 cells per well. To each well containing 3 mL of either L-363 or SKNBE2 cell line was added 6 uL of MycN modulating compound (1 mM) and the resulting plate was shaken from left to right, and not swirled. After 6 hours, the cells were placed in a 15 mL falcon tube and spun at 500 Gs at 4° C. in a swinging bucket centrifuge. The medium was then carefully removed without disturbing the pellet. The pellet was then washed with 3 mLs of chilled phosphate buffered saline (PBS) and subjected to the spin cycle. PBS was then removed and the pellet was lysed in 200 uL of radioimmunoprecipitation (RIPA) lysis buffer (Thermo Fisher: Cat. #899000) that is supplemented with protease and phosphatase inhibitors (Thermo Fisher: Cat. #A32959). The cell lysate was then subjected to spinning in a centrifuge for 10 minutes at 13000 G at 4° C. The supernatant was then carefully transferred to a fresh eppendorf tube without disturbing the pellet (˜180 uL). The protein concentration of the cell lysate was then determined by using a bicinchoninic acid (BCA assay) according to manufacturer's protocol (Thermo Fisher: Cat. #23227).
# Cell lysate, approximately 25 ug-30 ug, was loaded per well in a 4-20% polyacrylamide gel (Biorad. Cat. #5671094). After running the dye front off of the gel, the gel was transferred to a nitrocellulose membrane (Biorad: Cat. #1704159) using the transblot turbo system (Biorad: Cat. #1704150) according to manufacturer's protocol. After transferring for 30 minutes, the membrane was blocked with 5% BSA for 1 hour at room temperature. The BSA was then washed off and the primary antibody of choice (1:500) was added, and the membrane was incubated with the primary antibody at 4° C. for overnight. The next morning, the primary antibody was removed and the membrane was washed with 1×-TBST for 10 minutes and repeated three more times. Following the last wash, a secondary antibody (Molecular Devices. Cat. #R8209 or R8208) was added at 1:5000 dilution and incubated for 1 hour at room temperature. Following the incubation with the secondary antibody, the membrane was washed with 1×-TBST for 10 minutes and repeated three more times. Following the last wash, the membrane was washed with de-ionized water twice and dried for at least two hours. Once the membrane is completely dry, the Molecular Devices Spectra Max western system was used to observe the bands. The western image was saved and the band density was measured with ImageJ software.
SMILES,"inhibition at 2 µM ([1]; SKNBE2, 6 h)",inhibition at 2 µM [2],inhibition at 2 µM ([1]; 6 h)
"CN(c1nccc(Nc2cc(C3CC3)[nH]n2)n1)[C@H]1CC[C@H](NC(=O)Cc2ccnc(C#N)c2)CC1 [Compound 124, 2-(2-cyanopyridin-4-yl)-N-((1R,4R)-4-((4-((5-cyclopropyl-1H-pyrazol-3-yl)amino)pyrimidin-2-yl)(methyl)amino)cyclohexyl)acetamide]",50 to 79%,80 to 100%,–
"CN(c1nccc(Nc2cc(C3CC3)[nH]n2)n1)[C@H]1CC[C@H](NC(=O)c2cn3ccccc3n2)CC1 [Compound 117, N-((1R,4R)-4-((4-((5-cyclopropyl-1H-pyrazol-3-yl)amino)pyrimidin-2-yl)(methyl)amino)cyclohexyl)imidazo[1,2-a]pyridine-2-carboxamide]",80 to 100%,80 to 100%,–
"CN(c1nccc(Nc2cc(C3CC3)[nH]n2)n1)[C@H]1CC[C@H](NC(=O)N2CCn3nc(C(F)(F)F)nc3C2)CC1 [Compound 14, N-((1R,4R)-4-((4-((5-cyclopropyl-1H-pyrazol-3-yl)amino)pyrimidin-2-yl)(methyl)amino)cyclohexyl)-2-(trifluoromethyl)-5,6-dihydro-[1,2,4]triazolo[1,5-a]pyrazine-7(8H)-carboxamide]",80 to 100%,80 to 100%,–
"CN(c1nccc(Nc2cc(C3CC3)[nH]n2)n1)[C@H]1CC[C@H](NC(=O)c2ccc(C#N)cn2)CC1 [Compound 137, 5-cyano-N-((1R,4R)-4-((4-((5-cyclopropyl-1H-pyrazol-3-yl)amino)pyrimidin-2-yl)(methyl)amino)cyclohexyl)picolinamide]",< 20%,20 to 49%,–
"CN(c1nccc(Nc2cc(C3CC3)[nH]n2)n1)C1CCN(CC(=O)Nc2cn(C)nn2)CC1 [Compound 8, 2-(4-((4-((5-cyclopropyl-1H-pyrazol-3-yl)amino)pyrimidin-2-yl)(methyl)amino)piperidin-1-yl)-N-(1-methyl-1H-1,2,3-triazol-4-yl)acetamide]",50 to 79%,80 to 100%,–
"CN(c1nccc(Nc2cc(C3CC3)[nH]n2)n1)C1CCN(CC(=O)NC2Cc3ccc(C#N)cc3C2)CC1 (stereo not shown) [Compound 2, N-(5-cyano-2,3-dihydro-1H-inden-2-yl)-2-(4-((4-((5-cyclopropyl-1H-pyrazol-3-yl)amino)pyrimidin-2-yl)(methyl)amino)piperidin-1-yl)acetamide]",–,80 to 100%,80 to 100%
"CN(c1nccc(Nc2cc(C3CC3)[nH]n2)n1)[C@H]1CC[C@H](NC(=O)c2cn(CC3(C)COC3)nn2)CC1 [Compound 150, N-((1R,4R)-4-((4-((5-cyclopropyl-1H-pyrazol-3-yl)amino)pyrimidin-2-yl)(methyl)amino)cyclohexyl)-1-((3-methyloxetan-3-yl)methyl)-1H-1,2,3-triazole-4-carboxamide]",80 to 100%,80 to 100%,–
"CN(c1nccc(Nc2cc(C3CC3)[nH]n2)n1)C1CCN(CC(=O)Nc2cn(C3COC3)cn2)CC1 [Compound 10, 2-(4-((4-((5-cyclopropyl-1H-pyrazol-3-yl)amino)pyrimidin-2-yl)(methyl)amino)piperidin-1-yl)-N-(1-(oxetan-3-yl)-1H-imidazol-4-yl)acetamide]",50 to 79%,80 to 100%,–
"CN(c1nccc(Nc2cc(C3CC3)[nH]n2)n1)[C@H]1CC[C@H](C(=O)NCc2cccc(C(F)(F)F)c2)CC1 [Compound 127, (1R,4R)-4-((4-((5-cyclopropyl-1H-pyrazol-3-yl)amino)pyrimidin-2-yl)(methyl)amino)-N-(3-(trifluoromethyl)benzyl)cyclohexane-1-carboxamide]",80 to 100%,80 to 100%,–
"CN(c1nccc(Nc2cc(C3CC3)[nH]n2)n1)[C@H]1CC[C@H](NS(=O)(=O)Cc2cccc(C#N)c2)CC1 [Compound 158, 1-(3-cyanophenyl)-N-((1R,4R)-4-((4-((5-cyclopropyl-1H-pyrazol-3-yl)amino)pyrimidin-2-yl)(methyl)amino)cyclohexyl)methanesulfonamide]",50 to 79%,80 to 100%,–
"Cn1nnc(CNC(=O)[C@H]2CC[C@H](N(C)c3nccc(Nc4cc(C5CC5)[nH]n4)n3)CC2)n1 [Compound 144, (1R,4R)-4-((4-((5-cyclopropyl-1H-pyrazol-3-yl)amino)pyrimidin-2-yl)(methyl)amino)-N-((2-methyl-2H-tetrazol-5-yl)methyl)cyclohexane-1-carboxamide]",80 to 100%,80 to 100%,–
"CN(c1nccc(Nc2cc(C3CC3)[nH]n2)n1)[C@H]1CC[C@H](NS(=O)(=O)Cc2cccc(C(F)(F)F)c2)CC1 [Compound 152, N-((1R,4R)-4-((4-((5-cyclopropyl-1H-pyrazol-3-yl)amino)pyrimidin-2-yl)(methyl)amino)cyclohexyl)-1-(3-(trifluoromethyl)phenyl)methanesulfonamide]",80 to 100%,80 to 100%,–
"CN(c1nccc(Nc2cc(C3CC3)[nH]n2)n1)[C@H]1CC[C@H](NC(=O)Cc2cccc(S(C)(=O)=O)c2)CC1 [Compound 115, N-((1R,4R)-4-((4-((5-cyclopropyl-1H-pyrazol-3-yl)amino)pyrimidin-2-yl)(methyl)amino)cyclohexyl)-2-(3-(methylsulfonyl)phenyl)acetamide]",< 20%,50 to 79%,–
"CS(=O)(=O)c1cccc(NC(=O)CN2CCC(Nc3nccc(Nc4cc(C5CC5)[nH]n4)n3)CC2)c1 [Compound 6, 2-(4-((4-((5-cyclopropyl-1H-pyrazol-3-yl)amino)pyrimidin-2-yl)amino)piperidin-1-yl)-N-(3-(methylsulfonyl)phenyl)acetamide]",–,80 to 100%,50 to 79%
"CN(c1cc(C2CC2)[nH]n1)c1ccnc(N(C)C2CCN(CC(=O)Nc3cccc(C(F)(F)F)c3)CC2)n1 [Compound 4, 2-(4-((4-((5-cyclopropyl-1H-pyrazol-3-yl)(methyl)amino)pyrimidin-2-yl)(methyl)amino)piperidin-1-yl)-N-(3-(trifluoromethyl)phenyl)acetamide]",< 20%,20 to 49%,–
"Cn1cc(C(=O)N[C@H]2CC[C@H](N(C)c3nccc(Nc4cc(C5CC5)[nH]n4)n3)CC2)nn1 [Compound 140, N-((1R,4R)-4-((4-((5-cyclopropyl-1H-pyrazol-3-yl)amino)pyrimidin-2-yl)(methyl)amino)cyclohexyl)-1-methyl-1H-1,2,3-triazole-4-carboxamide]",80 to 100%,80 to 100%,–
"CN(c1nccc(Nc2cc(C3CC3)[nH]n2)n1)[C@H]1CC[C@H](C(=O)NC2Cc3ccccc3C2)CC1 [Compound 119, (1R,4R)-4-((4-((5-cyclopropyl-1H-pyrazol-3-yl)amino)pyrimidin-2-yl)(methyl)amino)-N-(2,3-dihydro-1H-inden-2-yl)cyclohexane-1-carboxamide]",–,80 to 100%,80 to 100%
